Read-outs that look alike come from different tables or passages of the source.
Legend:
[1] = test system: Pseudomonas aeruginosa A9843A; assay type: in vivo, mice; conditions: mouse, in vivo
Cl. chauvoei = assay: M.I.C. against anaerobic bacteria, Cl. chauvoei; assay type: cell-based; conditions: strain A9561
Pseudomonas aeruginosa [2] = assay: In vitro bactericidal synergism, broth dilution checkerboard; assay type: cell-based; conditions: for MBC: Pseudomonas aeruginosa, drug alone, read-out: Minimum Bactericidal Concentration
Pseudomonas aeruginosa [3] = assay: Minimum Inhibitory Concentration, tube dilution, overnight incubation at 37° C.; assay type: cell-based
Pseudomonas aeruginosa [4] = assay: Minimum Bactericidal Concentration of BL-P1937, at least 99.9% kill, three inoculum sizes; assay type: cell-based
Description: The bactericidal in vitro activity of BL-P1937 against Pseudomonas aeruginosa strains was also determined. Three tests were run, using initial inoculum sizes of 2.4 × 10^5, 1.6 × 10^5 and 1.4 × 10^5 cells/ml., respectively, and the M.B.C. was defined as the lowest concentration of antibiotic in mcg./ml. needed to kill at least 99.9% of viable Pseudomonas cells.

[5] = Mouse blood (serum) antibiotic levels after single intramuscular dose; assay type: in vivo; conditions: im, mice, 40 mg./kg. i.m., read-out: Blood Level
Description: Serum antibiotic levels from mice administered a single intramuscular dose of 40 mg./kg. of BL-[…] or carbenicillin are shown below.

[6] = mice, 40 mg./kg. i.m., Literature values, cited from earlier work
[7] = mice, 40 mg./kg. i.m., Literature values, cited from earlier work; remark: listed apart in the source
Pseudomonas aeruginosa [8] = conditions: prior art; cited from earlier work

## CC1(C)S[C@@H]2[C@H](NC(=O)[C@H](NC(=O)c3n[nH]c(=O)[nH]c3=O)c3ccc(O)cc3)C(=O)N2[C@H]1C(=O)O [BL-P1908, sodium D(-)-6-(α-(1,2,4-triazine-3,5-dione-6-carboxamido)-4-hydroxyphenylacetamido)penicillanate]
[1]
  equally effective dosage, drug alone: 5 mg/kg
Cl. chauvoei
  MIC: 4 µg/mL
Pseudomonas aeruginosa [2]; strain A20552
  MBC: 500 µg/mL
  strain sensitivity: sensitive
Pseudomonas aeruginosa [2]; strain A21509
  MBC: 500 µg/mL
  strain sensitivity: sensitive
Pseudomonas aeruginosa [2]; strain A21510
  MBC: 100 µg/mL
  strain sensitivity: sensitive
Pseudomonas aeruginosa [2]; strain A9843A
  strain sensitivity: sensitive
Pseudomonas aeruginosa [2]; strain A20480
  strain sensitivity: resistant
Pseudomonas aeruginosa [2]; strain A20620
  strain sensitivity: resistant

## CC1(C)S[C@@H]2[C@H](NC(=O)[C@H](NC(=O)c3n[nH]c(=S)[nH]c3=O)c3ccc(O)cc3)C(=O)N2[C@H]1C(=O)O [BL-P1937, sodium D(-)-6-(α-(1,2,4-triazine-3-thione-5-one-6-carboxamido)-4-hydroxyphenylacetamido)-penicillanate]
Pseudomonas aeruginosa [3]; strain A9910, Test 1
  MIC: 1 µg/mL
Pseudomonas aeruginosa [3]; strain A9910, Test 2
  MIC: 2 µg/mL
Pseudomonas aeruginosa [3]; strain A9910, Test 3
  MIC: 4 µg/mL
Pseudomonas aeruginosa [3]; strain A9926, Test 1
  MIC: 2 µg/mL
Pseudomonas aeruginosa [3]; strain A9926, Test 2
  MIC: 4 µg/mL
Pseudomonas aeruginosa [3]; strain A9926, Test 3
  MIC: 2 µg/mL
Pseudomonas aeruginosa [3]; strain A20126, Test 2
  MIC: 8 µg/mL
Pseudomonas aeruginosa [3]; strain A20126, Test 3
  MIC: 4 µg/mL
Pseudomonas aeruginosa [3]; strain A20128, Test 1
  MIC: 2 µg/mL
Pseudomonas aeruginosa [3]; strain A20128, Test 2
  MIC: 2 µg/mL
Pseudomonas aeruginosa [3]; strain A20128, Test 3
  MIC: 2 µg/mL
Pseudomonas aeruginosa [3]; strain A20227, Test 1
  MIC: 4 µg/mL
Pseudomonas aeruginosa [3]; strain A20227, Test 2
  MIC: 4 µg/mL
Pseudomonas aeruginosa [3]; strain A20227, Test 3
  MIC: 2 µg/mL
Pseudomonas aeruginosa [3]; strain A20228, Test 1
  MIC: 2 µg/mL
Pseudomonas aeruginosa [3]; strain A20228, Test 2
  MIC: 8 µg/mL
Pseudomonas aeruginosa [3]; strain A20228, Test 3
  MIC: 2 µg/mL
Pseudomonas aeruginosa [3]; strain A20546, Test 1
  MIC: 2 µg/mL
Pseudomonas aeruginosa [3]; strain A20546, Test 2
  MIC: 2 µg/mL
Pseudomonas aeruginosa [3]; strain A20546, Test 3
  MIC: 2 µg/mL
Pseudomonas aeruginosa [3]; strain A20557, Test 1
  MIC: 2 µg/mL
Pseudomonas aeruginosa [3]; strain A20557, Test 2
  MIC: 4 µg/mL
Pseudomonas aeruginosa [3]; strain A20557, Test 3
  MIC: 4 µg/mL
Pseudomonas aeruginosa [3]; strain A20574, Test 1
  MIC: 4 µg/mL
Pseudomonas aeruginosa [3]; strain A20574, Test 2
  MIC: 2 µg/mL
Pseudomonas aeruginosa [3]; strain A20574, Test 3
  MIC: 2 µg/mL
Pseudomonas aeruginosa [3]; strain A20602, Test 1
  MIC: 4 µg/mL
Pseudomonas aeruginosa [3]; strain A20602, Test 2
  MIC: 8 µg/mL
Pseudomonas aeruginosa [3]; strain A20602, Test 3
  MIC: 2 µg/mL
Pseudomonas aeruginosa [3]; strain A20616, Test 1
  MIC: 2 µg/mL
Pseudomonas aeruginosa [3]; strain A20616, Test 2
  MIC: 4 µg/mL
Pseudomonas aeruginosa [3]; strain A20616, Test 3
  MIC: 4 µg/mL
Pseudomonas aeruginosa [3]; strain A20641, Test 1
  MIC: 8 µg/mL
Pseudomonas aeruginosa [3]; strain A20641, Test 2
  MIC: 8 µg/mL
Pseudomonas aeruginosa [3]; strain A20641, Test 3
  MIC: 8 µg/mL
Pseudomonas aeruginosa [3]; strain A20717, Test 1
  MIC: 16 µg/mL
Pseudomonas aeruginosa [3]; strain A20717, Test 2
  MIC: 32 µg/mL
Pseudomonas aeruginosa [3]; strain A20717, Test 3
  MIC: 16 µg/mL
Pseudomonas aeruginosa [3]; strain A20726, Test 1
  MIC: 2 µg/mL
Pseudomonas aeruginosa [3]; strain A20726, Test 2
  MIC: 8 µg/mL
Pseudomonas aeruginosa [3]; strain A20726, Test 3
  MIC: 8 µg/mL
Pseudomonas aeruginosa [3]; strain A21336, Test 1
  MIC: 4 µg/mL
Pseudomonas aeruginosa [3]; strain A21336, Test 2
  MIC: 8 µg/mL
Pseudomonas aeruginosa [3]; strain A21336, Test 3
  MIC: 4 µg/mL
Pseudomonas aeruginosa [4]; strain A9843A, Test 1, inoculum 2.4 × 10^5
  MBC: 125 µg/mL
Pseudomonas aeruginosa [4]; strain A9910, Test 1, inoculum 2.4 × 10^5, read-out: M.B.C.
  MBC: 125 µg/mL
Pseudomonas aeruginosa [4]; strain A9910, Test 2, inoculum 1.6 × 10^5, read-out: M.B.C.
  MBC: 250 µg/mL
Pseudomonas aeruginosa [4]; strain A9910, Test 3, inoculum 1.4 × 10^5, read-out: M.B.C.
  MBC: 500 µg/mL
Pseudomonas aeruginosa [4]; strain A9926, Test 1, inoculum 2.4 × 10^5, read-out: M.B.C.
  MBC: 250 µg/mL
Pseudomonas aeruginosa [4]; strain A9926, Test 2, inoculum 1.6 × 10^5, read-out: M.B.C.
  MBC: 1000 µg/mL
Pseudomonas aeruginosa [4]; strain A9926, Test 3, inoculum 1.4 × 10^5, read-out: M.B.C.
  MBC: 250 µg/mL
Pseudomonas aeruginosa [4]; strain A20126, Test 1, inoculum 2.4 × 10^5, read-out: M.B.C.
  MBC: 16 µg/mL
Pseudomonas aeruginosa [4]; strain A20126, Test 2, inoculum 1.6 × 10^5, read-out: M.B.C.
  MBC: 63 µg/mL
Pseudomonas aeruginosa [4]; strain A20126, Test 3, inoculum 1.4 × 10^5, read-out: M.B.C.
  MBC: 63 µg/mL
Pseudomonas aeruginosa [4]; strain A20128, Test 1, inoculum 2.4 × 10^5, read-out: M.B.C.
  MBC: 16 µg/mL
Pseudomonas aeruginosa [4]; strain A20128, Test 2, inoculum 1.6 × 10^5, read-out: M.B.C.
  MBC: 16 µg/mL
Pseudomonas aeruginosa [4]; strain A20128, Test 3, inoculum 1.4 × 10^5, read-out: M.B.C.
  MBC: 63 µg/mL
Pseudomonas aeruginosa [4]; strain A20227, Test 1, inoculum 2.4 × 10^5, read-out: M.B.C.
  MBC: 63 µg/mL
Pseudomonas aeruginosa [4]; strain A20227, Test 2, inoculum 1.6 × 10^5, read-out: M.B.C.
  MBC: 8 µg/mL
Pseudomonas aeruginosa [4]; strain A20227, Test 3, inoculum 1.4 × 10^5, read-out: M.B.C.
  MBC: 16 µg/mL
Pseudomonas aeruginosa [4]; strain A20228, Test 1, inoculum 2.4 × 10^5, read-out: M.B.C.
  MBC: 125 µg/mL
Pseudomonas aeruginosa [4]; strain A20228, Test 2, inoculum 1.6 × 10^5, read-out: M.B.C.
  MBC: 500 µg/mL
Pseudomonas aeruginosa [4]; strain A20228, Test 3, inoculum 1.4 × 10^5, read-out: M.B.C.
  MBC: 250 µg/mL
Pseudomonas aeruginosa [4]; strain A20546, Test 1, inoculum 2.4 × 10^5, read-out: M.B.C.
  MBC: 250 µg/mL
Pseudomonas aeruginosa [4]; strain A20546, Test 2, inoculum 1.6 × 10^5, read-out: M.B.C.
  MBC: 1000 µg/mL
Pseudomonas aeruginosa [4]; strain A20546, Test 3, inoculum 1.4 × 10^5, read-out: M.B.C.
  MBC: 500 µg/mL
Pseudomonas aeruginosa [4]; strain A20557, Test 1, inoculum 2.4 × 10^5, read-out: M.B.C.
  MBC: 250 µg/mL
Pseudomonas aeruginosa [4]; strain A20557, Test 2, inoculum 1.6 × 10^5, read-out: M.B.C.
  MBC: 1000 µg/mL
Pseudomonas aeruginosa [4]; strain A20557, Test 3, inoculum 1.4 × 10^5, read-out: M.B.C.
  MBC: 500 µg/mL
Pseudomonas aeruginosa [4]; strain A20574, Test 1, inoculum 2.4 × 10^5, read-out: M.B.C.
  MBC: 250 µg/mL
Pseudomonas aeruginosa [4]; strain A20574, Test 2, inoculum 1.6 × 10^5, read-out: M.B.C.
  MBC: 250 µg/mL
Pseudomonas aeruginosa [4]; strain A20574, Test 3, inoculum 1.4 × 10^5, read-out: M.B.C.
  MBC: 500 µg/mL
Pseudomonas aeruginosa [4]; strain A20602, Test 1, inoculum 2.4 × 10^5, read-out: M.B.C.
  MBC: 250 µg/mL
Pseudomonas aeruginosa [4]; strain A20602, Test 2, inoculum 1.6 × 10^5, read-out: M.B.C.
  MBC: 500 µg/mL
Pseudomonas aeruginosa [4]; strain A20602, Test 3, inoculum 1.4 × 10^5, read-out: M.B.C.
  MBC: 500 µg/mL
Pseudomonas aeruginosa [4]; strain A20616, Test 1, inoculum 2.4 × 10^5, read-out: M.B.C.
  MBC: 125 µg/mL
Pseudomonas aeruginosa [4]; strain A20616, Test 2, inoculum 1.6 × 10^5, read-out: M.B.C.
  MBC: 250 µg/mL
Pseudomonas aeruginosa [4]; strain A20616, Test 3, inoculum 1.4 × 10^5, read-out: M.B.C.
  MBC: 500 µg/mL
Pseudomonas aeruginosa [4]; strain A20641, Test 1, inoculum 2.4 × 10^5, read-out: M.B.C.
  MBC: 125 µg/mL
Pseudomonas aeruginosa [4]; strain A20641, Test 2, inoculum 1.6 × 10^5, read-out: M.B.C.
  MBC: 250 µg/mL
Pseudomonas aeruginosa [4]; strain A20641, Test 3, inoculum 1.4 × 10^5, read-out: M.B.C.
  MBC: 250 µg/mL
Pseudomonas aeruginosa [4]; strain A20717, Test 1, inoculum 2.4 × 10^5, read-out: M.B.C.
  MBC: 500 µg/mL
Pseudomonas aeruginosa [4]; strain A20717, Test 2, inoculum 1.6 × 10^5, read-out: M.B.C.
  MBC: 1000 µg/mL
Pseudomonas aeruginosa [4]; strain A20717, Test 3, inoculum 1.4 × 10^5, read-out: M.B.C.
  MBC: > 1000 µg/mL
Pseudomonas aeruginosa [4]; strain A20726, Test 1, inoculum 2.4 × 10^5, read-out: M.B.C.
  MBC: 32 µg/mL
Pseudomonas aeruginosa [4]; strain A20726, Test 2, inoculum 1.6 × 10^5, read-out: M.B.C.
  MBC: 250 µg/mL
Pseudomonas aeruginosa [4]; strain A20726, Test 3, inoculum 1.4 × 10^5, read-out: M.B.C.
  MBC: 500 µg/mL
Pseudomonas aeruginosa [4]; strain A21336, Test 1, inoculum 2.4 × 10^5, read-out: M.B.C.
  MBC: 250 µg/mL
Pseudomonas aeruginosa [4]; strain A21336, Test 2, inoculum 1.6 × 10^5, read-out: M.B.C.
  MBC: 500 µg/mL
Pseudomonas aeruginosa [4]; strain A21336, Test 3, inoculum 1.4 × 10^5, read-out: M.B.C.
  MBC: 500 µg/mL
[5]; 15 min.
  concentration at 0.25 h: 19900 ng/mL
[5]; 30 min.
  concentration at 0.5 h: 10300 ng/mL
[5]; 60 min.
  concentration at 1 h: < 2200 ng/mL
[5]; 90 min.
  concentration at 1.5 h: < 2200 ng/mL

## CC1(C)S[C@@H]2[C@H](NC(=O)C(C(=O)O)c3ccccc3)C(=O)N2[C@H]1C(=O)O (stereo partly drawn) [Carbenicillin, reference compound]
[6]; 15 min.
  Blood Level: 18100 ng/mL
[6]; 30 min.
  Blood Level: 8100 ng/mL
[6]; 60 min.
  Blood Level: < 4600 ng/mL
[6]; 90 min.
  Blood Level: < 4600 ng/mL
[7]; 15 min.
  Blood Level: 18100 ng/mL
[7]; 30 min.
  Blood Level: 8100 ng/mL
[7]; 60 min.
  Blood Level: < 4600 ng/mL
[7]; 90 min.
  Blood Level: < 4600 ng/mL
Pseudomonas aeruginosa [8]
  potency against Pseudomonas aeruginosa: relatively low potency

— patent US4081441A, “Antibacterial agents” (priority 1977, dated 1978)
